Values of other authors, collected in paper PMC10643470, “Knockout or inhibition of USP30 protects dopaminergic neurons in a Parkinson’s disease mouse model” (Nature Communications, 2023).

Legend:
[1] = tested on: SHSY5Y neuroblastoma cells; set-up: method as in PMID 32636217; conditions: SHSY5Y neuroblastoma cells ref 42; cited from earlier work
[2] = tested on: SHSY5Y neuroblastoma cells; set-up: method as in PMID 32636217; conditions: SHSY5Y neuroblastoma cells ref 42; cited from earlier work; remark: listed apart in the source
[3] = tested on: USP30; conditions: cited from earlier work

Row | SMILES | Ubiquitylation of TOM20 [1] | Mitophagy levels [2] | USP30 inhibition in biochemical assays [3]
1 | N#CN1CC[C@@H](NC(=O)c2cc(-c3ccccc3Oc3ccccc3)n[nH]2)C1 [FT3967385] | significantly increases | significantly increases | 
2 | CC(C)(C)NS(=O)(=O)c1cccc2c(NC(=O)[C@H](Cc3ccccc3)NC(=O)C3CC3)cccc12 [MF-095] |  |  | identified as USP30 inhibitors
3 | CC(C)(C)NS(=O)(=O)c1cccc2c(NC(=O)[C@H](Cc3ccccc3)NC(=O)C3CCCCC3)cccc12 [MF-094] |  |  | identified as USP30 inhibitors
